{"source": "patent US20260327211A1", "about": "“MODULATORS OF A POTASSIUM CHANNEL AND OF TRPV1 CHANNEL AND USES THEREOF” (Bsense Bio Therapeutics Ltd., priority 2023, published 2026)", "format_in_all_cases": "cell-based", "key": {"hKv7.2/3": {"target": "T1, hKv7.2/3 (Homo sapiens, UniProt O43525+O43526)", "T1 construct": "host or cells: CHO", "T1 sequence (O43525 whole entry)": "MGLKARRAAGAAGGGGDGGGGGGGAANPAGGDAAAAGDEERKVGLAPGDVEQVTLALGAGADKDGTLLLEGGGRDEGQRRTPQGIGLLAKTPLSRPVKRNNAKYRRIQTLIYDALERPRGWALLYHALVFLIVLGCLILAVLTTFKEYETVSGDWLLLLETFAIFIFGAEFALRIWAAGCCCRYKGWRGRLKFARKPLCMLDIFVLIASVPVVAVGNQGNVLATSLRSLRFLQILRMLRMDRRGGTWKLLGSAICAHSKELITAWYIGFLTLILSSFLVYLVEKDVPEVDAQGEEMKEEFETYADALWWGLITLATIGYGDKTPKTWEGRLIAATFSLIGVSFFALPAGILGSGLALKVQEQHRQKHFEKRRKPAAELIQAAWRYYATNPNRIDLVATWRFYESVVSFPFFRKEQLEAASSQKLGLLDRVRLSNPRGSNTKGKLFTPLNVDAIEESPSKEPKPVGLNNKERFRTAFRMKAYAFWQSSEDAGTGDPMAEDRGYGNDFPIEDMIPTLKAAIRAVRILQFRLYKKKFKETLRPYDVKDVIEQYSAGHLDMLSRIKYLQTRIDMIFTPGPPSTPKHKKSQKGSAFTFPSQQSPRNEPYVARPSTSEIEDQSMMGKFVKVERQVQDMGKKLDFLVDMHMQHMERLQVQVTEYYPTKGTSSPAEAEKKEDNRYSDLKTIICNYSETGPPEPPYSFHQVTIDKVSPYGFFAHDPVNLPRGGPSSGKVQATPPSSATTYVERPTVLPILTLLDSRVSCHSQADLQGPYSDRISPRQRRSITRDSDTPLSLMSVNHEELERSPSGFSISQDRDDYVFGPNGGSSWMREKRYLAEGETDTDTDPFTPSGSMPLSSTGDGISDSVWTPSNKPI", "T1 sequence (O43526 whole entry)": "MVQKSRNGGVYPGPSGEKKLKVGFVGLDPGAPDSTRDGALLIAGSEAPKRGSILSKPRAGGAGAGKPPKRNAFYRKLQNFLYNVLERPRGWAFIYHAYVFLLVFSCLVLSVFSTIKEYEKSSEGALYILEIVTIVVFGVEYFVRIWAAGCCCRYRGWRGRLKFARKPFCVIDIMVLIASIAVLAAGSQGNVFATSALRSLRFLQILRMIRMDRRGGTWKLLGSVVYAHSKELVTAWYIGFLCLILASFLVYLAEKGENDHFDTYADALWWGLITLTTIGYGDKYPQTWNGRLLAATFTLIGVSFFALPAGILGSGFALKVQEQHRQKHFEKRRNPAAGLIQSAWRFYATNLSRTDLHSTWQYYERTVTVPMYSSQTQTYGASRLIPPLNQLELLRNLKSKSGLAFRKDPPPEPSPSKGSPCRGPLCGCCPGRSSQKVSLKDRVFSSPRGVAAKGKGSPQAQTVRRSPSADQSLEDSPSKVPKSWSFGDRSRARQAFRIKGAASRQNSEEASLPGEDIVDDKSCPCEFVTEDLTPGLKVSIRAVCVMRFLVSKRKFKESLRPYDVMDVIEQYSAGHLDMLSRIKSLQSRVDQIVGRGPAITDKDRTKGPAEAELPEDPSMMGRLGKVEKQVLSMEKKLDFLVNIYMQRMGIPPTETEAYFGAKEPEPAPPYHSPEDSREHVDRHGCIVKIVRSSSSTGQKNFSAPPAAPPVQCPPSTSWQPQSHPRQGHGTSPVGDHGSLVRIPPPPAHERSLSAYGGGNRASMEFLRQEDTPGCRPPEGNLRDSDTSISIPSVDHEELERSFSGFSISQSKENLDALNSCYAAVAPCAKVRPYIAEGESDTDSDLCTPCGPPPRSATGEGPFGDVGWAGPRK", "assay": "Kv7.2/7.3 HCS, FLIPR potassium (thallium) assay, CHO/hKv7.2/3", "protocol": "Cell culture: Chinese hamster ovary (CHO) cell-line cells with a constitutive expression of human Kv7.2/3 channels (B'SYS GmbH, Switzerland) were cultured in F-12 nutrient mixture (Biological Industries) supplemented with 10% fetal bovine serum (Biological Industries) and 1% penicillin-streptomycin (Biological Industries) in a humidified 5% CO2 incubator at 37° C. To maintain the stability of human Kv7.2/7.3 expression antibiotic selection was added (Puromycin 5 μg/ml).\nHigh content screen (HCS) using FLIPR Potassium Assay Kit: A FLIPR Potassium Assay Kit (R8222 FLIPR Potassium Assay Explorer Kits, Molecular Devices) was used with the CHO/hKv7.2/3 cell line to screen molecules against the hKv7.2/7.3 ion channel target. The assay exploits the permeability of thallium ions (Tl+) through potassium (K+) channels. In this assay, Tl+ indicator dye is used to produce a bright fluorescent signal upon the binding to Tl+ conducted through the potassium channels. The intensity of the Tl+ signal is proportional to the number of potassium channels in the open state. Therefore, it provides a functional indication of the potassium channel activity. To activate the voltage-gate potassium channels, the cells were stimulated with a mixture of K+ and Tl+ to depolarize the cell membrane. The fluorescence increase in the assay represents the influx of Tl+ into the cell specifically through the potassium channel, providing a functional read-out of hKv7.2/3 activity using a fluorescent plate reader coupled with injectors used to activate the channels.\nAccording to optimization process to achieve uniform and consistent screening conditions the following protocol was established: Cells were seeded in 384-well, black-walled, clear-bottomed Greiner #781091, at a density of 5000 cells per well 24 hours before the assay conductance and incubated overnight in their normal growth medium. On the experiment day the medium was replaced with HBSS, HEPES, and the test compound/vehicle (0.2% DMSO). Dye solution (prepared according to the manufacturer) was added to the plates, which were incubated for 1.5 h light-protected in room temperature. Tecan Spark reader plate injectors were primed with Tl+(1 mM Tl2SO4) or Tl++K+(1 mM Tl2SO4; 5 mM K2SO4) for channel activation and data correction. […] To calculate EC50 values, the data was fitted to sigmoidal regression using Prism GraphPad. The fitting was constrained to a minimum of 1 and a maximal response of about 3.6 unless a different maximal response could be clearly identified."}, "hTRPV1 [1]": {"target": "T2, hTRPV1 (Homo sapiens, UniProt Q8NER1)", "T2 construct": "CDS of NM_080704.4, inserted into the multiple cloning site of pcDNA3.1(+); host or cells: CHO/hKv7.2/3", "T2 sequence (Q8NER1 whole entry)": "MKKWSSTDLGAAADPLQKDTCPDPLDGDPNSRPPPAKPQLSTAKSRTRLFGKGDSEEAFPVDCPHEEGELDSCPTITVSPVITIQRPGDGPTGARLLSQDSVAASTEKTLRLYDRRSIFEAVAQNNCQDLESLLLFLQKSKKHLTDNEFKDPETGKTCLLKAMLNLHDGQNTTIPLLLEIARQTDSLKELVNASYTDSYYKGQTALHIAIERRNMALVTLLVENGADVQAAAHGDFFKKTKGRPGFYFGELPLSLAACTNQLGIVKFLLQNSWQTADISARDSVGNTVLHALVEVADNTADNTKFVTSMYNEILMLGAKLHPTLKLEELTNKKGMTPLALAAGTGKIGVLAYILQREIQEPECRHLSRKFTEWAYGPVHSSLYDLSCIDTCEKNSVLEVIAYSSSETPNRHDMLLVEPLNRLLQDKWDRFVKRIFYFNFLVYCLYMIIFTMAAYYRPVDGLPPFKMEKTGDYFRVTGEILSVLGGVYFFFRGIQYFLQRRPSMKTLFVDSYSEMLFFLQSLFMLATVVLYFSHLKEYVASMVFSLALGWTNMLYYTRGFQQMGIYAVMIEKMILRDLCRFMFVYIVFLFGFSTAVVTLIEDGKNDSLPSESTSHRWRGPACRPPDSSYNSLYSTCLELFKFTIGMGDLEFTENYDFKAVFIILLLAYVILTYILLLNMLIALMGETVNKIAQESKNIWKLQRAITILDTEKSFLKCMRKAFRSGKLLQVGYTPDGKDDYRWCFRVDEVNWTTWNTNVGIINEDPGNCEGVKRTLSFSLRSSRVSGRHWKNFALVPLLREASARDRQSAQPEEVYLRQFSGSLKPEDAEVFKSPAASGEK", "assay": "TRPV1 HCS, Fluo-8 calcium flux, capsaicin activation, CHO cells expressing hTRPV1", "protocol": "Cell culture: Chinese hamster ovary (CHO) cell-line cells with constitutive expression of human hTRPV1 channels (B'SYS GmbH, Switzerland) were cultured in F-12 nutrient mixture (Biological Industries) supplemented with 10% fetal bovine serum (Biological Industries) and 1% penicillin-streptomycin (Biological Industries) in a humidified 5% CO2 incubator at 37° C. To maintain the stable expression of hTRPV1, antibiotic selection (G418 500 μg/ml) was applied.\nHigh content screen (HCS) using Fluo-8 No Wash Calcium flux Assay Kit: Fluo-8 No Wash Calcium Assay Kit (Abcam, ab112129) was used with CHO stably or transiently expressing TRPV1 to screen compounds against the hTRPV1 ion channel target. The cells were pre-loaded with Fluo-8AM which is membrane permeable. The AM groups of the Fluo-8AM were then being cleaved by intracellular esterase, trapping the Fluo8 in the cell. […] The relative fluorescence signal was calculated following background subtraction, comparing the fluorescence at each time point to its maximal level measured following Ionomycin application in the end.\nAccording to optimization process to achieve uniform and consistent screening condition of molecules the following protocol was established: Cells were seeded in 384-well, black-walled, clear-bottomed, at a density of 5,000 cells per well 24 h before the assay conductance and incubated overnight in their normal growth medium. On the experiment day the medium was replaced in each well with HBSS, HEPES, and compound/vehicle (0.2% DMSO). Dye solution (prepared according to the manufacturer) was added to the wells and plates are incubated for 1.5 h light-protected in room temperature. The Tecan Spark plate reader injectors were then primed with capsaicin and Ionomycin for channel activation and data normalization, respectively. […] To calculate IC50 values, the data was fitted to sigmoidal regression line using Prism GraphPad. The fitting was constrained to a minimum of 0 and a maximal response of about 1 unless a different maximal response could be identified."}, "rat DRG neurons [2]": {"test_system": "rat DRG neurons", "assay": "Rat DRG neurons, current-evoked action potential firing", "conditions": "for Inhibition of current induced AP response: 100 nM", "source_text": "(§1) rDRGs isolation and primary cell culture: Briefly, rat DRGs from all spinal levels were carefully removed and collected in HBSS on ices, connective tissue of the epineurium surrounding the ganglion was removed and cells were dissociated using Collagenase-II and trypsin dissociation solutions. DRGs were dissociated further, passed through glass Pasteur pipettes to obtain single cells. Then dissociation solution was changed to 5% FBS containing DRG neuronal culture medium and plated onto ECL coated 12 mm cover glass.\n(§2) Additional rDRGs experiments were performed using Lonza primary neonatal rat (Sprague Dawley neonatal; P2,3) DRG neurons (R-DRG-505, Lonza) plated and cultured according to the manufacturer.\n(§3) Electrophysiology: Cells were used for electrophysiological recording at least 48 hours following rDRG isolation or at least 5 days following cryopreserved rDRG thawing. Round small neurons (20-40 μm in diameter) were selected for electrophysiology recordings, to select for small nociceptive neurons that propagate pain sensation in vivo and that are expressing both Kv7.2/3 and TRPV1 targets. Membrane excitability was monitored using current clamp configuration of the whole-cell patch-clamp technique. Positive current steps of different amplitude were injected (400 ms) to induce spikes trains before and following compound application."}, "rat DRG neurons [3]": {"test_system": "rat DRG neurons", "assay": "Rat DRG neurons, capsaicin-evoked action potential firing", "conditions": "for Inhibition of capsaicin induced AP response: 100 nM", "source_text": "as §1, §2, §3\nTo assess the potency of compounds using DRG neurons, the inhibitory potency for CAP-evoked action potential (AP) trains was measured. For this purpose, DRG membrane potential was continuously measured, and the following protocol was performed:\nCells were perfused with vehicle containing bath solution. After 30 seconds, CAP (1 μM) was applied for 6 seconds to activate TRPV1 and stimulate AP trains.\nAfter 30 seconds of perfusion with bath solution containing only vehicle, perfusion was changed to a bath solution containing compound, and after 3 minutes of compound application, CAP (1 μM) was applied again for 6 seconds to activate TRPV1 and stimulate AP trains.\nCells perfusion was changed back to bath solution containing only vehicle and after 3 minutes of compound washout, CAP (1 μM) was applied again for 6 seconds to activate TRPV1 and stimulate AP trains.\nTo evaluate the drug/control response, the number of AP spikes induced by CAP following incubation with test compound was divided by the average number of control AP spikes induced without compound, before compound incubation, and following its washout."}, "hTRPV1 [4]": {"target": "T2, hTRPV1", "assay": "hTRPV1 dual activity electrophysiology, CHO cells co-expressing hKv7.2/3 and hTRPV1", "conditions": "with hKv7.2/3 activation", "protocol": "Cell culture and DNA transfection: CHO/hKv7.2/3 cells were transfected with hTRPV1 DNA constructs (CDS of NM_080704.4, inserted into the multiple cloning site of pcDNA3.1(+) between the Hind III and BamH I restriction site, Genscript). For CHO transfection, 1×10^6 cells were suspended in a reaction mix (Amaxa™ 4D-Nucleofector™-LONZA) containing 5 μg of hTRPV1 DNA and 0.5 μg of GFP DNA (for cells selection) in a cuvette.\nThe cells were transformed (Amaxa, DT-133 program for CHO transfection with p-3 Kit) and recovered for 10 minutes at RT in the hood. Then cells were re-suspended in a 10 mL antibiotic (Ab)-free medium suspension and were plated on Gelatin or PLL-coated cover glass in different cell densities. On the next morning, the medium was changed to full medium containing the CHO/hKv7.2/3 cell line selection antibiotics.\nExtracellular (Bath) solution: The solution was composed of (in mM): NaCl, 140; KCl, 4; CaCl2, 1.8; MgCl2, 1.2; Glucose, 11; HEPES, 5.5. pH was adjusted to 7.3 with NaOH. Osmolarity was adjusted to 310 mOsm with Sucrose.\nIntracellular (Pipette) solution: Pipettes were pulled from borosilicate glass (Warner Instrument Corp, USA) with a resistance of 3-7 MΩ and were filled with internal solution composed of (in mM): KCl, 130; MgCl2, 1; K ATP, 5; EGTA, 5; HEPES, 10. pH was adjusted to 7.3 with KOH. Osmolarity was adjusted to 290 mOsm with Sucrose.\nA programmable valve-linked pressurized perfusion system was used for local application of compounds nearby the cell recorded in a consistent flow rate of 2-3 mL/minute. Series resistance was corrected and data were sampled at 5 kHz and low pass filtered at 2.4 kHz using MultiClamp 700B amplifier with pCLAMP11 software (Molecular Devices, USA).\nAt least 48 hours following cell transfection and plating, cells were recorded to assess the TRPV1 dual activity. Membrane potential was held at −90 mV. To measure the inhibitory effects of the tested compounds on hTRPV1 dual activity the following protocol was performed:\nCells were perfused with vehicle-only containing bath solution. After 30 seconds, a single −40 mV 1.5 second step was applied for Kv7.2/3 activation and 30 seconds later capsaicin (1 μM) was applied for 6 seconds to activate the TRPV1.\nCells perfusion was changed to a compound-containing bath solution, and after 2 minutes and 30 seconds of compound application, a single −40 mV 1.5 second step was applied for Kv7.2/3 activation and 30 seconds later capsaicin (1 μM) was applied for 6 seconds to activate the TRPV1.\nCells perfusion was thereafter changed back to vehicle only-containing bath solution. After 30 seconds, a single −40 mV 1.5 step was applied for Kv7.2/3 activation and 30 seconds later capsaicin (1 μM) was applied for 6 seconds to activate the TRPV1 followed by a capsaicin wash out.\nThe drug current response, when capsaicin was injected following 3 minutes of pre-incubation with the test compound, was divided by the averaged control currents, induced without compound, before compound incubation and following its washout, to evaluate the drug/control response."}, "hERG": {"target": "hERG (Homo sapiens, UniProt Q12809)", "sequence (Q12809 whole entry)": "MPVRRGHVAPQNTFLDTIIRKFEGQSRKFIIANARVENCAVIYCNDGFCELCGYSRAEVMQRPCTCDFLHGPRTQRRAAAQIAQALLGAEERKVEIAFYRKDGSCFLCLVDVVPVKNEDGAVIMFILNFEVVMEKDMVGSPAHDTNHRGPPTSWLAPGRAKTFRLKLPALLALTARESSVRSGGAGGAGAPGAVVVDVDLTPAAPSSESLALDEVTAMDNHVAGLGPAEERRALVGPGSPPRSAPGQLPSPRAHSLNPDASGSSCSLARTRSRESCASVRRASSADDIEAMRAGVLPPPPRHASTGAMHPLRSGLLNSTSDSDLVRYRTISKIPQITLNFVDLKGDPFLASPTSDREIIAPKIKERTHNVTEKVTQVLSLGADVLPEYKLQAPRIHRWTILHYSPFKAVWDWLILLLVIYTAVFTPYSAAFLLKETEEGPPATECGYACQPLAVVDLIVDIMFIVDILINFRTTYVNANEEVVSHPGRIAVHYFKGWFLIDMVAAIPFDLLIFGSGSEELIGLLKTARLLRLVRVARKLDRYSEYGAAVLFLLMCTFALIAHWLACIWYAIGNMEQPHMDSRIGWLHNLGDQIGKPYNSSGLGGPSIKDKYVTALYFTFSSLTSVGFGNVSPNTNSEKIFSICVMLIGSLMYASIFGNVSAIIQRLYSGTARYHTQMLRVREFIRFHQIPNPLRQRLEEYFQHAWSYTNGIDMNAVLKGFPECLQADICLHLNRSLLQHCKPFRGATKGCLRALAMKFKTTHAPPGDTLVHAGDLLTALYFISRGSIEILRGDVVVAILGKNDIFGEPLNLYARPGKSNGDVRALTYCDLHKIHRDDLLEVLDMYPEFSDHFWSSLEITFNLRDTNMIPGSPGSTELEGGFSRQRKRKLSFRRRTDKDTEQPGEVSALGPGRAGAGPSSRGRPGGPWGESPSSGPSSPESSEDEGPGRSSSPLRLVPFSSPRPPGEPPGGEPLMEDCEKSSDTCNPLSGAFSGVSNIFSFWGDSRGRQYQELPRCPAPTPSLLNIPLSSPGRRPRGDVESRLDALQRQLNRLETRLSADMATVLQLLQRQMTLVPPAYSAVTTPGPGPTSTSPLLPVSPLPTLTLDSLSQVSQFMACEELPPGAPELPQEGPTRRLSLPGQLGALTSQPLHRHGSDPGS", "assay": "hERG HCS, FLIPR potassium assay, CHO/hERG", "design": "host or cells: CHO", "conditions": "at highest concentration shown, Table 1", "protocol": "Cell culture: Chinese hamster ovary (CHO) cell-line cells with a constitutive expression of human hERG channels (B'SYS GmbH, Switzerland) were cultured in F-12 nutrient mixture (Biological Industries) supplemented with 10% fetal bovine serum (Biological Industries) and 1% penicillin-streptomycin (Biological Industries) in a humidified 5% CO2 incubator at 37° C. To maintain the hERG expression stability of the CHO cell line, antibiotics selection (G418 […] and Hygromycin 500) was applied.\nFLIPR Potassium Assay Kit: The FLIPR Potassium Assay Kit (R8222 FLIPR Potassium Assay Explorer Kits, Molecular Devices) was used with CHO/hERG cell line, for screening compounds against the hERG ion-channel off-target, as detailed hereinabove.\nAccording to optimization process, to achieve a uniform and consistent screening condition of molecules, the following protocol was established: Cells were seeded in 384-well, black-walled, clear-bottomed, at a density of 7,500 cells per well 24 hours before the assay conductance and incubated overnight in their normal growth medium. On the experiment day the medium was replaced with HBSS, HEPES, and the tested compound/vehicle (0.2% DMSO). Dye solution (prepared according to the manufacturer) was added to the wells and plates were incubated for 1.5 hour light-protected in room temperature. The Tecan Spark plate-reader injectors were primed with Tl+(1 mM Tl2SO4) or Tl++K+(1 mM Tl2SO4; 10 mM K2SO4) for channel activation and data correction. […]. To calculate IC50 values, the data was fitted to sigmoidal regression using Prism GraphPad."}}, "note": "Where two headings read alike, the source gives them in different places."}
{"molecule": "CC(C)c1cc(Cl)cc(Cl)c1C(O)c1ccc(F)c(CC(=O)NCC2(O)CCC2)c1", "note": "(single isomer, unassigned) [Compound 533p2]", "values": [{"measurement": "Kv7.2/3 activation (words)", "setting": "hKv7.2/3", "result": "higher"}, {"measurement": "Kv7.2/3 activation (words)", "setting": "hKv7.2/3; listed as 533P2", "result": "more potent activation of Kv7.2/3"}, {"measurement": "TRPV1 modulation (words)", "setting": "hTRPV1 [1]", "result": "activates hTRPV1"}, {"measurement": "TRPV1 modulation (words)", "setting": "hTRPV1 [1]; listed as 533P2", "result": "activating TRPV1"}, {"measurement": "Inhibition of current induced AP response", "setting": "rat DRG neurons [2]; 0.1 µM", "result": "inhibits the current-evoked rat DRGs spiking"}, {"measurement": "Inhibition of current induced AP response", "setting": "rat DRG neurons [2]; listed as 533P2, 0.1 µM", "result": "inhibits current induced AP"}, {"measurement": "Inhibition of capsaicin induced AP response", "setting": "rat DRG neurons [3]; 0.1 µM", "result": "facilitated"}, {"measurement": "Inhibition of capsaicin induced AP response", "setting": "rat DRG neurons [3]; listed as 533P2, 0.1 µM", "result": "potentiates capsaicin induced AP"}]}
{"molecule": "CC(C)(C)c1ccc(/C=C/C(=O)Nc2ccc3c(c2)OCCO3)cc1", "note": "[AMG9810, reference compound]", "values": [{"measurement": "hTRPV1 inhibition potency, Kv7.2/3 co-expressed and activated", "setting": "hTRPV1 [4]", "result": "failure to gain TRPV1-inhibition potency"}, {"measurement": "Current evoked response", "setting": "rat DRG neurons [2]; 50 nM", "result": "remains unchanged"}, {"measurement": "Inhibition of capsaicin evoked firing", "setting": "rat DRG neurons [3]; 50 nM", "result": "about 50%"}]}
{"molecule": "CC(C)c1cc(Cl)cc(Cl)c1C(O)c1ccc(F)c(CC(=O)NCC2(O)CCC2)c1", "note": "(racemic) [Compound 533 racemic]", "values": [{"measurement": "EC50", "setting": "hKv7.2/3; Table 1, read-out: Kv7.2/7.3 IC50", "result": 1500, "unit": "nM"}, {"measurement": "hERG IC50 (inhibition in parentheses)", "setting": "hERG", "result": 0, "unit": "%"}, {"measurement": "Inhibition of current induced AP response", "setting": "rat DRG neurons [2]", "result": "reduced current induced AP inhibition"}, {"measurement": "Inhibition of capsaicin induced AP response", "setting": "rat DRG neurons [3]", "result": "highly potentiating capsaicin induced AP inhibition"}]}
